Earlier results on 3 compounds are cited in US7850723B1, “Method and apparatus for patient temperature control employing titration of therapy using EEG signals” (Innercool Therapies, Inc., priority 2005, dated 2010).

The conditions of data set [1]: in vivo.
Data set [2] concerns clots. Conditions: clots treated with UK at 4° C. and 28° C.; heating to 28° C.
In data set [3] the test system is clots. The conditions noted are these: clots treated with plasminogen (2 mg) and SK (100 IU) in 15 ml PBS; clot temperature raised from 24° C. to 37° C.

As for `CCOC(=O)C1(c2ccccc2)CCN(C)CC1` [Meperidine], the “decrease of shivering threshold relative to vasoconstriction threshold” value in data set [1] is “twice as much”.
Regarding urokinase [UK], the “fibrinolytic activity (conversion of plasminogen to plasmin)” value in the data set with clots [2] is “complete conversion of all plasminogen to plasmin”.
For the compound streptokinase [SK], the fibrinolytic activity entry with clots [3] was “heating enhanced the fibrinolytic activity”.
